This note sets out measurements from patent US11844772B2, “Method for treating rhabdoid tumors” (Lantern Pharma Inc., priority 2020, dated 2023).

Structures are written as SMILES. Bounds are passed on as bounds.

Assay [1] deals with CHLA-02 (group 1) ATRT cell line. The assay is described as follows: LP-184 sensitivity in ATRT cell line CHLA-02. It counts as cell-based. From the text:
(§1) Patients receive several types of treatment, which may include surgery, chemotherapy and radiation, but the overall 2-year survival rate remains less than 15% for children aged younger than 3 years at diagnosis. ATRTs commonly have mutations in or loss of the gene SMARCB1. Increased LP-184 sensitivity correlates with decreased expression of SMARCB1. The panel of 3 ATRT cell lines, 2 of the 3 lines show evidence of high sensitivity to HydroxyUreaMethyl Acylfulvene (having a negative optical activity) or LP-184 with IC50s for those 2 being lower than 200 nM.

In assay [2] the test system is CHLA-05 (group 1) ATRT cell line. The assay is described as follows: LP-184 sensitivity in ATRT cell line CHLA-05. It counts as cell-based.
Description: as §1

The test system of a further assay is CHLA06 xenograft tumors. The assay is described as follows: in vivo xenograft tumor study, animal model of atypical teratoid rhabdoid tumor (ATRT). Set-up: species or system NOD SCID mice. As to the method:
LP-184 or HydroxyUreaMethyl Acylfulvene with a negative optical activity was tested for anti-tumor efficacy in an in vivo xenograft tumor study by Lantern Pharma. […] LP-184 was administered after (treatment model) the onset of disease. CHLA06 cells were implanted subcutaneously in non-obese diabetic severe combined immunodeficiency (NOD SCID) mice, formed xenograft tumors, and were thereafter treated either with vehicle control of 95% saline/5% ethanol (N=10) or 2 mg/kg or 4 mg/kg LP-184 (N=10) administered as intravenous injections.
LP-184 was delivered as 5 every other day doses over 2 cycles with a break of 5 days between cycles (IV/QaD×5on/5off×2), i.e., dosing occurred on days 0, 2, 4, 6. 8, 14, 16, 18, 20, and 22 of the study. LP-184 treatment was started 4 weeks after implantation when the tumors reached a group average volume of 150 mm^3. […] 2 out of 10 mice in the 4 mg/kg LP-184 treatment group were virtually tumor-free at study termination (tumor volume 0.5 mm^3). […] The results are highlighted in FIG. 2, wherein the Y axis denotes tumor volume in mm^3 and X axis denotes days post, treatment initiation. Since tumor growth was established before administration of the anti-cancer study drug, the defining feature of the treatment tumor model, anti-tumor treatment effects may thus be appropriately attributed to LP-184.
In CHLA06 xenograft models, tumors from the vehicle control treated mice appear vividly large (length range 1.5-2 cm) whereas tumors from 4 mg/kg LP-184 treated animals shrunk remarkably (length less than 0.5 cm) or have fully regressed.

Assay [3] relates to panel of 3 ATRT cell lines. The assay is described as follows: LP-184 sensitivity in a panel of 3 ATRT cell lines. It counts as cell-based. The settings on record: 2 of the 3 ATRT cell lines (high sensitivity).
Description: as §1

The subject of assay [4] is CHLA-06 (group 2A/B) ATRT cell line. The assay is described as follows: LP-184 sensitivity in ATRT cell line CHLA-06. It counts as cell-based.
Description: as §1

As to `CC1=C(CN(O)C(N)=O)C2=C(C)C3(CC3)[C@@](C)(O)C(=O)C2=C1` [LP-184, HydroxyUreaMethyl Acylfulvene], the half-maximal inhibitory concentration (IC50) – broadly, the concentration that gives 50% inhibition – is 1770 nM in assay [1], 162 nM in assay [2], < 200 nM in assay [3] and 37.4 nM in assay [4]. For the same molecule, the “mice virtually tumor-free at study termination” value in the assay with CHLA06 xenograft tumors (4 mg/kg IV group, N=10) is listed as 2 out of 10. Besides, the “tumor volume of virtually tumor-free mice” value in the assay on CHLA06 xenograft tumors (4 mg/kg IV group, study termination) is 0.5 mm^3. The “tumor length (photographs at end of experiment)” value in the assay with CHLA06 xenograft tumors (4 mg/kg LP-184 treated animals, vehicle 1.5-2 cm) is reported as “less than 0.5 cm”. The “tumor regression, on average” value in the assay on CHLA06 xenograft tumors (LP-184 treated groups (2 or 4 mg/kg IV), end of study day 42) is recorded as “near complete tumor regression”. Besides, in the assay on CHLA06 xenograft tumors (day 40, final dose on day 22), the “tumor regrowth after final dose” value is reported as “no tumor regrowth”. In addition, the Tumor growth inhibition with CHLA06 xenograft tumors (relative to control, IV QoDx5 on/5 off x2, 2 mg/kg or 4 mg/kg) came out at 112%.
